Drawing on US8906944B2, “Compounds as tyrosine kinase modulators” (Allergan, Inc., priority 2009, dated 2014), this text covers IC50 for 23 molecules.

Holding throughout (format): biochemical
The target in assay [1] is T1, human VEGF receptor (VEGFR-2) (Homo sapiens, UniProt P35968).
T1 construct: The cytoplasmic domain of the human VEGF receptor (VEGFR-2) was expressed; His; made in house; host or cells: insect cells (baculovirus)
In words: VEGFR2 kinase assay. The settings on record: His-VEGFR-2 cytoplasmic domain, 3.6 μM ATP; Table IV, amide or urea linker; read-out: VEGFR2 Enzyme IC50. Here is the method:
The cytoplasmic domain of the human VEGF receptor (VEGFR-2) was expressed as a Histidine-tagged fusion protein following infection of insect cells using an H is engineered baculovirus. […] Kinase assays were performed in 96 well microtiter plates that were coated overnight with 30 µg of poly-Glu-Tyr (4:1) in 10 mM Phosphate Buffered Saline (PBS), pH 7.2-7.4. The plates were incubated with 1% BSA and then washed four times with PBS prior to starting the reaction. Reactions were carried out in 120 µL reaction volumes containing 3.6 µM ATP in kinase buffer (50 mM Hepes buffer pH 7.4, 20 mM MgCl2, 0.1 mM MnCl2 and 0.2 mM Na3 VO4). […] Reactions were initiated by the addition 0.5 ng of purified protein. Following a ten minute incubation at 25 degree. […] IC50 values for compound inhibition were calculated directly from graphs of optical density (arbitrary units) versus compound concentration following subtraction of blank values.

The target in a further assay is PDGFβ (Homo sapiens, UniProt P09619). In words: PDGFβ enzyme assay. The settings on record: Table IV, amide or urea linker.
The target of the next assay is VEGFR1 (Homo sapiens, UniProt P17948). The experiment in a line: VEGFR1 enzyme assay. The settings on record: Table IV, amide or urea linker.
VEGFR1, sequence (P17948 27-1338, species assumed): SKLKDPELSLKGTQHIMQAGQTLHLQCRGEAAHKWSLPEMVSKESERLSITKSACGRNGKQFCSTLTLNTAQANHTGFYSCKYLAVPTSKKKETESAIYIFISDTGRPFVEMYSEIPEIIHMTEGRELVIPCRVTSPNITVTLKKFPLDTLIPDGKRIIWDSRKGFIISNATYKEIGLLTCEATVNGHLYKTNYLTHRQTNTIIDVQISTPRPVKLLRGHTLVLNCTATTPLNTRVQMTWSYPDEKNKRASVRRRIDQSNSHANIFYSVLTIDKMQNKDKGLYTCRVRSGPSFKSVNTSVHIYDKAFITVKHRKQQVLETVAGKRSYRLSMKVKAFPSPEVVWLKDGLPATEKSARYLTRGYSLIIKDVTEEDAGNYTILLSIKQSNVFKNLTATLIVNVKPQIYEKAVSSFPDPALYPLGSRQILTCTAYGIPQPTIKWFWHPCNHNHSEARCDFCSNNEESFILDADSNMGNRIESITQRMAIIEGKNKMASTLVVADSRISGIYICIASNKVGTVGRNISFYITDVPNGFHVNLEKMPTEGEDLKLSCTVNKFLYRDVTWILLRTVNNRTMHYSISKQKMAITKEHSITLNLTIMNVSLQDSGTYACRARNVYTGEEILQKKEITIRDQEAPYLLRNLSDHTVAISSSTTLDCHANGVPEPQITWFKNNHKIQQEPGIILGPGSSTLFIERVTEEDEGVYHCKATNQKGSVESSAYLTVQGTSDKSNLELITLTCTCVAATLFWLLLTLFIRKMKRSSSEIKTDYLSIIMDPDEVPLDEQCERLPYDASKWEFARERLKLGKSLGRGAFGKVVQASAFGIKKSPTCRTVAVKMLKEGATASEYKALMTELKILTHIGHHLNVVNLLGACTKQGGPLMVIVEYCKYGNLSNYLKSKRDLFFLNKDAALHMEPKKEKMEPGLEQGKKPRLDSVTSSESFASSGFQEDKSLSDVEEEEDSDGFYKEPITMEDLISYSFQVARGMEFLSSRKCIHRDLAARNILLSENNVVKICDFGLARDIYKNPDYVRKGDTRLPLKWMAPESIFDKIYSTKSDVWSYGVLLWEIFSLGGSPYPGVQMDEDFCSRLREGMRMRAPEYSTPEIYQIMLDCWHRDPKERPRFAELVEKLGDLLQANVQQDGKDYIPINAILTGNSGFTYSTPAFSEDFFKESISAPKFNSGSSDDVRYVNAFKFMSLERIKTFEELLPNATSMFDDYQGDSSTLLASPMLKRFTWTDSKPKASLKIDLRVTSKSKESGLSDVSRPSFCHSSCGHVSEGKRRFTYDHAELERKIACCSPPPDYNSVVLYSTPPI

T1 sequence (P35968 786-1356 limits assumed): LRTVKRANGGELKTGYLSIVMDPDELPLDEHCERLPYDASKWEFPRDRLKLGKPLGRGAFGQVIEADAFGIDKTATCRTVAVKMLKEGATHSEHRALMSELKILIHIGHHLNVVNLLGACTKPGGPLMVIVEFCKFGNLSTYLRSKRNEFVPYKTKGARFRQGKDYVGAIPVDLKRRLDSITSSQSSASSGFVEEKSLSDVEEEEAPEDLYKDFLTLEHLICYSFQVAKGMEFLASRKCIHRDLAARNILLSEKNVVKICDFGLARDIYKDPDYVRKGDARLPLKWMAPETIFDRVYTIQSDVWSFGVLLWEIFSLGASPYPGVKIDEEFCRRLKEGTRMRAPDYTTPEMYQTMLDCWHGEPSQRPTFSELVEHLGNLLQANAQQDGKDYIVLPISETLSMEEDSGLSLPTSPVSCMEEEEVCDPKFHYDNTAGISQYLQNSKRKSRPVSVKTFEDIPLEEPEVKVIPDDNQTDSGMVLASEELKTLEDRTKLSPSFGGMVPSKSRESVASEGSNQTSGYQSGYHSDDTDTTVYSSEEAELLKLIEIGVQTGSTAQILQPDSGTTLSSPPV
PDGFβ, sequence (P09619 33-1106): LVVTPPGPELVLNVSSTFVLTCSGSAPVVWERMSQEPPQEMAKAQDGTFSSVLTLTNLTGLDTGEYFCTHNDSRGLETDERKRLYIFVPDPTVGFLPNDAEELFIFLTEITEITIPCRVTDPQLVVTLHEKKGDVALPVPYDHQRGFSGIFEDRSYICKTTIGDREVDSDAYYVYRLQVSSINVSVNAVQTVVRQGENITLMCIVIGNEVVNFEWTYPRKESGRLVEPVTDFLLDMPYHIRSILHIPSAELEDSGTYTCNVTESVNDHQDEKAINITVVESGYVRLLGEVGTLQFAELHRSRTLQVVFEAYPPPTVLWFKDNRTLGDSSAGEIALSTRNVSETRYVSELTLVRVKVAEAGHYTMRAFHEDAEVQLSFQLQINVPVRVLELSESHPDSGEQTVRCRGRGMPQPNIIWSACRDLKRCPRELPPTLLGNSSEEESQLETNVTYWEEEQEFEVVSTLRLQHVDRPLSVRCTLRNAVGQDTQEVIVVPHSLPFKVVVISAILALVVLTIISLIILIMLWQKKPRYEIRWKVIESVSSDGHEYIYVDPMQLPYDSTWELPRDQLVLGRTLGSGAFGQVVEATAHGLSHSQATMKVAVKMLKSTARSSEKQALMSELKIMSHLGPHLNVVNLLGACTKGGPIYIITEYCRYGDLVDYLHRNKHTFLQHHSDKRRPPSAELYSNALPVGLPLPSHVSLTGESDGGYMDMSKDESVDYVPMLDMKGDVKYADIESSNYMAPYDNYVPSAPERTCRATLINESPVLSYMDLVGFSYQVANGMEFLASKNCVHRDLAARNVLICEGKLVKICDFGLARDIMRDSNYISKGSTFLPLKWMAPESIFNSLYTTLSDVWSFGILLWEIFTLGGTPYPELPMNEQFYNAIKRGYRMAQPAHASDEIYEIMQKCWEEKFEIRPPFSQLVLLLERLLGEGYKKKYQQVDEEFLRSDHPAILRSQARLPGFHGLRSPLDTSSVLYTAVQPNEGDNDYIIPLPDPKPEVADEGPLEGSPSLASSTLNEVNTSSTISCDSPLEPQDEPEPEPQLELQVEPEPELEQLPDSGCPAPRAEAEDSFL

`COC(=O)CCNC(=O)c1c[nH]c(-c2cc(Oc3ccc(NC(=O)Nc4cccc(C)c4)c(F)c3)ccn2)c1` [Example 174, methyl 3-{[(5-{4-[3-fluoro-4-({[(3-methylphenyl)amino]carbonyl}amino)phenoxy]pyridin-2-yl}-1H-pyrrol-3-yl)carbonyl]amino}propanoate]: the half-maximal inhibitory concentration (IC50) – broadly, the midpoint of a concentration-inhibition curve – in assay [1] was determined as 8 nM; against PDGFβ it was 42 nM.
In the case of `Cc1ccc(F)c(NC(=O)Nc2ccc(Oc3ccnc(-c4cc(C(=O)NCCCC(=O)NN)c[nH]4)c3)cc2)c1` [Example 177, 5-{4-[4-({[(2-fluoro-5-methylphenyl)amino]carbonyl}amino)phenoxy]pyridin-2-yl}-N-(4-hydrazino-4-oxobutyl)-1H-pyrrole-3-carboxamide], the IC50 in assay [1] came out at 15 nM.
For `COC(=O)CN(CCCNC(=O)c1c[nH]c(-c2cc(Oc3cc(C(=O)Nc4cc(C)ccc4F)ccc3F)ccn2)c1)CC(=O)OC` [Example 178, dimethyl 2,2′-({3-[({5-[4-(2-fluoro-5-{[(2-fluoro-5-methylphenyl)amino]carbonyl}phenoxy)pyridin-2-yl]-1H-pyrrol-3-yl}carbonyl)amino]propyl}imino)diacetate], the half-maximal inhibitory concentration (IC50) in assay [1] was 24 nM; against VEGFR1 it was 60 nM.
Taken in the same sequence, the figures for `COC(=O)CN(CCNC(=O)c1c[nH]c(-c2cc(Oc3cc(C(=O)Nc4cc(C)ccc4F)ccc3F)ccn2)c1)CC(=O)OC` [Example 179, dimethyl 2,2′-({2-[({5-[4-(2-fluoro-5-{[(2-fluoro-5-methylphenyl)amino]carbonyl}phenoxy)pyridin-2-yl]-1H-pyrrol-3-yl}carbonyl)amino]ethyl}imino)diacetate] were 21 nM and 50 nM.
With `Cc1ccc(F)c(NC(=O)c2ccc(F)c(Oc3ccnc(-c4cc(C(=O)NCCN)c[nH]4)c3)c2)c1` [Example 182, N-(2-aminoethyl)-5-[4-(2-fluoro-5-{[(2-fluoro-5-methylphenyl)amino]carbonyl}phenoxy)pyridin-2-yl]-1H-pyrrole-3-carboxamide], the values for the IC50 (in assay [1]; at VEGFR1) were 33 nM and 86 nM, respectively.
`Cc1ccc(F)c(NC(=O)c2ccc(F)c(Oc3ccnc(-c4cc(C(=O)NCCNC(=O)OC(C)(C)C)c[nH]4)c3)c2)c1` [Example 183, tert-butyl {2-[({5-[4-(2-fluoro-5-{[(2-fluoro-5-methylphenyl)amino]carbonyl}phenoxy)pyridin-2-yl]-1H-pyrrol-3-yl}carbonyl)amino]ethyl}carbamate]: the IC50 in assay [1] came out at 24 nM; against VEGFR1 it was 100 nM.
On to `Cc1ccc(F)c(NC(=O)Nc2ccc(Oc3ccnc(-c4cc(C(=O)N5CCC5)c[nH]4)c3)cc2)c1` [Example 185, 1-[4-({2-[4-(azetidin-1-ylcarbonyl)-1H-pyrrol-2-yl]pyridin-4-yl}oxy)phenyl]-3-(2-fluoro-5-methylphenyl)urea], for which the results for the concentration for half-maximal inhibition (IC50) against PDGFβ and against VEGFR1 were 63 nM and 40 nM, respectively.
As for `Cc1ccoc1C(=O)Nc1cc(Oc2ccnc(-c3cc(C(=O)NCCCN4CCCCC4)c[nH]3)c2)ccc1F` [Example 191, 5-(4-{4-fluoro-3-[(3-methyl-2-furoyl)amino]phenoxy}pyridin-2-yl)-N-(3-piperidin-1-ylpropyl)-1H-pyrrole-3-carboxamide], the results for the IC50 (in assay [1]; against VEGFR1) were 25 nM and 42 nM, respectively.
On the same counts, the results for `Cc1ccoc1C(=O)Nc1cc(Oc2ccnc(-c3cc(C(=O)NCCCN4CCCC4)c[nH]3)c2)ccc1F` [Example 192, 5-(4-{4-fluoro-3-[(3-methyl-2-furoyl)amino]phenoxy}pyridin-2-yl)-N-(3-pyrrolidin-1-ylpropyl)-1H-pyrrole-3-carboxamide] are 26 nM and 34 nM.
Taken in the same sequence, the figures for `Cc1ccoc1C(=O)Nc1cc(Oc2ccnc(-c3cc(C(=O)NCCCN4CCOCC4)c[nH]3)c2)ccc1F` [Example 194, 5-(4-{4-fluoro-3-[(3-methyl-2-furoyl)amino]phenoxy}pyridin-2-yl)-N-(3-morpholin-4-ylpropyl)-1H-pyrrole-3-carboxamide] were 23 nM and 25 nM.
Regarding `Cc1ccc(F)c(NC(=O)Nc2ccc(Oc3ccnc(-c4cc(C(=O)N5CCN(C(=O)OC(C)(C)C)CC5)c[nH]4)c3)cc2F)c1` [Example 224, tert-butyl 4-[(5-{4-[3-fluoro-4-({[(2-fluoro-5-methylphenyl)amino]carbonyl}amino)phenoxy]pyridin-2-yl}-1H-pyrrol-3-yl)carbonyl]piperazine-1-carboxylate], the values for the IC50 (in assay [1]; against VEGFR1) were 10 nM and 21 nM, respectively.
Taken in the same sequence, the figures for `Cc1ccc(F)c(NC(=O)Nc2ccc(Oc3ccnc(-c4cc(C(=O)NCCCN5CCCC5)c[nH]4)c3)cc2F)c1` [Example 226, 5-{4-[3-fluoro-4-({[(2-fluoro-5-methylphenyl)amino]carbonyl}amino)phenoxy]pyridin-2-yl}-N-(3-pyrrolidin-1-ylpropyl)-1H-pyrrole-3-carboxamide] were 6 nM and 9 nM.
Taken in the same sequence, the figures for `COCCOC(=O)c1c[nH]c(-c2cc(Oc3ccc(NC(=O)Nc4cc(C)ccc4F)c(F)c3)ccn2)c1` [Example 227, 2-methoxyethyl 5-{4-[3-fluoro-4-({[(2-fluoro-5-methylphenyl)amino]carbonyl}amino)phenoxy]pyridin-2-yl}-1H-pyrrole-3-carboxylate] were 9 nM and 11 nM.
For the molecule `Cc1cccc(NC(=O)Nc2ccc(Oc3ccnc(-c4cc(C(=O)NCCCN5CCC(O)CC5)c[nH]4)c3)cc2)c1` [Example 235, N-[3-(4-hydroxypiperidin-1-yl)propyl]-5-{4-[4-({[(3-methylphenyl)amino]carbonyl}amino)phenoxy]pyridin-2-yl}-1H-pyrrole-3-carboxamide], the IC50 against PDGFβ was determined as 15 nM; at VEGFR1 it was 14 nM.
On to `Cc1cccc(NC(=O)Nc2ccc(Oc3ccnc(-c4cc(C(=O)OCC(CO)(CO)CO)c[nH]4)c3)cc2)c1` [Example 240, 3-hydroxy-2,2-bis(hydroxymethyl)propyl 5-{4-[4-({[(3-methylphenyl)amino]carbonyl}amino)phenoxy]pyridin-2-yl}-1H-pyrrole-3-carboxylate], for which the 50% inhibitory concentration (IC50) in assay [1] stood at 7 nM.
On to `COC(=O)CC[C@H](NC(=O)c1c[nH]c(-c2cc(Oc3cc(C(=O)Nc4cc(C)ccc4F)ccc3F)ccn2)c1)C(=O)O` [Example 262, 2-[({5-[4-(2-fluoro-5-{[(2-fluoro-5-methylphenyl)amino]carbonyl}phenoxy)pyridin-2-yl]-1H-pyrrol-3-yl}carbonyl)amino]-5-methoxy-5-oxopentanoic acid], for which the IC50 in assay [1] was determined as 67 nM; against PDGFβ it was 66 nM.
Taken in the same sequence, the figures for `CCNC(=O)CC[C@H](NC(=O)c1c[nH]c(-c2cc(Oc3ccc(NC(=O)Nc4cc(C)ccc4F)cc3)ccn2)c1)C(=O)NCC` [Example 263, N,N′-diethyl-2-{[(5-{4-[4-({[(2-fluoro-5-methylphenyl)amino]carbonyl}amino)phenoxy]pyridin-2-yl}-1H-pyrrol-3-yl)carbonyl]amino}pentanediamide] were 14 nM and 46 nM.
As to `CCNC(=O)[C@H](CCC(=O)OC(C)(C)C)NC(=O)c1c[nH]c(-c2cc(Oc3cccc(NC(=O)c4occc4C)c3)ccn2)c1` [Example 265, tert-butyl 5-(ethylamino)-4-({[5-(4-{3-[(3-methyl-2-furoyl)amino]phenoxyl}pyridin-2-yl)-1H-pyrrol-3-yl]carbonyl}amino)-5-oxopentanoate], in assay [1], the IC50 was 18 nM.
Same read-out and setting: for `Cc1ccoc1C(=O)Nc1cccc(Oc2ccnc(-c3cc(C(=O)N[C@@H](CCC(=O)OC(C)(C)C)C(=O)O)c[nH]3)c2)c1` [Example 266, 5-tert-butoxy-2-({[5-(4-{3-[(3-methyl-2-furoyl)amino]phenoxy}pyridin-2-yl)-1H-pyrrol-3-yl]carbonyl}amino)-5-oxopentanoic acid] the value was 31 nM.
The same measure, in the same setting: for `Cc1ccc(F)c(NC(=O)Nc2ccc(Oc3ccnc(-c4cc(C(=O)NCCCN5CCC(C(=O)O)C5)c[nH]4)c3)cc2)c1` (centres unmarked) [Example 268, 1-(3-{[(5-{4-[4-({[(2-fluoro-5-methylphenyl)amino]carbonyl}amino)phenoxy]pyridin-2-yl}-1H-pyrrol-3-yl)carbonyl]amino}propyl)pyrrolidine-3-carboxylic acid] the value was 15 nM; for `Cc1ccc(F)c(NC(=O)Nc2ccc(Oc3ccnc(-c4cc(C(=O)NCCCN5CCC(O)CC5)c[nH]4)c3)cc2)c1` [Example 272, 5-{4-[4-({[(2-fluoro-5-methylphenyl)amino]carbonyl}amino)phenoxy]pyridin-2-yl}-N-[3-(4-hydroxypiperidin-1-yl)propyl]-1H-pyrrole-3-carboxamide], 19 nM.
As for `Cc1cccc(NC(=O)c2ccc(F)c(Oc3ccnc(-c4cc(C(=O)NCCC(=O)O)c[nH]4)c3)c2)c1` [Example 275, 3-[({5-[4-(2-fluoro-5-{[(3-methylphenyl)amino]carbonyl}phenoxy)pyridin-2-yl]-1H-pyrrol-3-yl}carbonyl)amino]propanoic acid], the IC50 in assay [1] was determined as 19 nM.
Same read-out and setting: for `COC(=O)CCNC(=O)c1c[nH]c(-c2cc(Oc3cc(C(=O)Nc4cccc(C)c4)ccc3F)ccn2)c1` [Example 277, methyl 3-[({5-[4-(2-fluoro-5-{[(3-methylphenyl)amino]carbonyl}phenoxy)pyridin-2-yl]-1H-pyrrol-3-yl}carbonyl)amino]propanoate] the value was 13 nM.
